Test results from patent publication US20260294810A1, “IONIZABLE LIPID COMPOUND, LIPID CARRIER COMPRISING SAME, AND APPLICATION” (INNOVEC BIOTHERAPEUTICS, priority 2023, published 2026).

What was measured:
Luc-eGFP mRNA = assay: Determination of encapsulation efficiency of mRNAs (Quant-iT RiboGreen RNA kit); type: physicochemical
Method: (§1) In this example, the total lipid phase concentration of 1 mg/mL was formulated in anhydrous ethanol at the molar ratio of ionizable lipid (Compound 1, Compound 11 or Compound 12):helper lipid (DSPC or DOPE):cholesterol:DMG-PEG2000=50%:10%:38.5%:1.5%. Luc-eGFP mRNA at the corresponding concentration was dissolved in 50 mM citric acid buffer with an aqueous buffer solution of pH4.0. The mass ratio of mRNA to the total lipids was 1:30.
(§2) LNPs were prepared using the formulation-screening chip from Micro & Nano at a total flow rate of 12 ml/min and a flow rate ratio of 1:3 between the lipid phase and the aqueous phase. The lipid nanoparticles were collected and dialyzed with PBS overnight at 4° C. to remove ethanol and acidic buffer salts. The dialysate volume was 400 times or more the sample volume. The dialyzed sample was filtered through a 0.2-μm filter membrane. Lipid nanoparticles could also be prepared by other methods, such as injection mixing, in addition to using microfluidic chips. After being dialyzed and filtered, the sample was concentrated using a 10 kDa cellulose ultrafiltration membrane. The centrifugation parameter was 1000 g to 2000 g, and the centrifugation time was 30 min to 1 hour. The centrifugation temperature was 4° C.
For mRNA-encapsulated lipid nanoparticles, the assay specified in the Quant-iT™ RiboGreen® RNA kit could be employed. The specific operations were as follows: The sample was diluted 10 to 20 folds with a TE buffer solution (10 mM Tris-HCl, 1 mM EDTA, pH 7.5). An equal volume of demulsifier (2% Triton X-100) was added to the sample to be tested and then the solution was diluted 10 to 20 folds again. The RiboGreen® reagent was diluted 100 folds in the TE buffer solution, and 100 μl of the diluted solution was added to a 96-well plate. 100 μl of the sample to be tested was added to the corresponding 96-well plate. Meanwhile, a standard curve was plotted using the mRNA standard. The fluorescence value at 520 nm excited by 480 nm excitation light was read using a microplate reader. The concentrations of the encapsulated and free mRNAs were calculated based on the standard curve.
(§3) The nucleic acid delivery efficiency of lipid nanoparticles was characterized by observing the fluorescence expression in mice. The lipid nanoparticles were prepared at a molar ratio of ionizable lipid (Compound 17, Compound 15, Compound 18, Compound 2 or MC3):DSPC:cholesterol:DSPE-PEG2000=50%:10%:39.5%:0.5%. Female C57/BL6 mice weighing 18 to 22 g were selected. After acclimation, the Luc-eGFP mRNA-encapsulated lipid nanoparticles were injected subretinally into mice (both eyes) at a dose of 0.9 μg (±10%) mRNA (1 μl, in a sterile PBS solution) per eye. In order to observe the expression of luciferase, the luciferase substrate was dissolved into a sterile PBS solution and prepared into a solution at a concentration of 30 mg/ml.

luciferase [1] = assay: In vivo delivery of luciferase mRNA in animals, tail vein injection, chemiluminescence imaging; set-up: species or system Female C57/BL6 mice; details: Luc-eGFP mRNA 0.5 mg/kg, mice, 6 h after injection
Method: as §1
The nucleic acid delivery efficiency of lipid nanoparticles was characterized by observing the fluorescence expression in mice. The Luc-eGFP mRNA-encapsulated lipid nanoparticles prepared in Example 9 were injected at a certain dose into mice via the tail vein. Female C57/BL6 mice weighing 18 to 22 g were randomly grouped, with two mice in each group. After acclimation, Luc-eGFP mRNA-encapsulated LNPs (in a sterile PBS solution) were injected via the tail vein at a dose of 0.5 mg/kg (0.5 mg here referring to the dose of mRNA). In order to observe the expression of luciferase, the luciferase substrate was dissolved into a sterile PBS solution and prepared into a solution at a concentration of 30 mg/ml.
Six hours after injection of LNPs, 150 ul of luciferase substrate solution was injected intraperitoneally into each mouse. The mice were allowed to stand for 5 min, and then anesthetized for 3 min in a carbon dioxide box. After anesthesia, the mice were put in a small animal in vivo imager for imaging.

[2] = Determination of particle size and polydispersity index of lipid nanoparticles (Malvern particle size analyzer); type: physicochemical
Method: as §1, §2
2. Determination of particle size: The particle size and polydispersity index (PDI) of the prepared lipid nanoparticles were measured using a Malvern particle size analyzer.
as §3

luciferase [3] = assay: Subretinal injection in mice, chemiluminescence from Luc-eGFP mRNA delivered by lipid nanoparticles; type: in vivo, Female C57/BL6 mice; details: LNP ionizable lipid:DSPC:cholesterol:DSPE-PEG2000 = 50:10:39.5:0.5, both eyes, 0.9 μg (±10%) mRNA per eye
Method: as §3
Imaging in mice: 18 hours after drug administration, 150 μl of luciferase substrate solution was injected intraperitoneally into each mouse. The mice were allowed to stand for 5 min, and then anesthetized for 3 min in a carbon dioxide box. After anesthesia, the mice were put in a small animal in vivo imager for imaging.

[4] = LNP with helper lipid DOPE, ionizable lipid:helper lipid:cholesterol:DMG-PEG2000 = 50:10:38.5:1.5, Luc-eGFP mRNA:total lipids 1:30
[5] = LNP with helper lipid DSPC, ionizable lipid:helper lipid:cholesterol:DMG-PEG2000 = 50:10:38.5:1.5, Luc-eGFP mRNA:total lipids 1:30
[6] = LNP ionizable lipid:DSPC:cholesterol:DSPE-PEG2000 = 50:10:39.5:0.5, Luc-eGFP mRNA

Row | Nucleic Acid Encapsulation Efficiency (Luc-eGFP mRNA; [4]) | Nucleic Acid Encapsulation Efficiency (Luc-eGFP mRNA; [5]) | PDI [2, 4] | Particle Size [2, 4] | PDI [2, 5] | Particle Size [2, 5] | Nucleic Acid Encapsulation Efficiency (Luc-eGFP mRNA; [6]) | PDI [2, 6] | Particle Size [2, 6] | Compound | Luminous Intensity 6 h (luciferase [1]; LNP with helper lipid DOPE) | Luminous Intensity 6 h (luciferase [1]; LNP with helper lipid DSPC) | Luminous Intensity 18 h (luciferase [3])
1 |  | 97.13% |  |  | 0.215 | 96.88 nm |  |  |  | CCCCCCCCC(C)C(=O)OCCCCCCN(CCCCCCOC(=O)C(CCCCCC)CCCCCCCC)CCOC(=O)NCCN(CC)CC (stereo not shown) [Compound 11] |  | 7.2E+7 p/s/cm^2/sr | 
2 |  | 97.58% |  |  | 0.22 | 123 nm |  |  |  | CCCCCCCCC(CCCC)C(=O)OCCCCCCN(CCCCCCOC(=O)C(CCCCCC)CCCCCCCC)CCOC(=O)NCCN(CC)CC (stereo not shown) [Compound 12] |  | 3.1E+8 p/s/cm^2/sr | 
3 |  |  |  |  |  |  | 98.2% | 0.22 | 149.7 nm | CCCCCCCCCOC(=O)CCCCCCCN(CCCCCCCC(=O)OC(CCCCCCCC)CCCCCCCC)CCOC(=O)NCCN(C)CC [Compound 15] |  |  | 2.6E+7 p/s/cm^2/sr
4 |  |  |  |  |  |  | 96.6% | 0.24 | 149.0 nm | CCCCC/C=C\C/C=C\CCCCCCCCC(CCCCCCCC/C=C\C/C=C\CCCCC)OC(=O)CCCN(C)C [MC3, DLin-MC3-DMA, reference compound] |  | 1.35E+8 p/s/cm^2/sr | 5E+6 p/s/cm^2/sr

Further lines, the molecule ahead of its results:

Row | Compound | Nucleic Acid Encapsulation Efficiency (Luc-eGFP mRNA; [4]) | Nucleic Acid Encapsulation Efficiency (Luc-eGFP mRNA; [5]) | PDI [2, 4] | Particle Size [2, 4] | PDI [2, 5] | Particle Size [2, 5] | Nucleic Acid Encapsulation Efficiency (Luc-eGFP mRNA; [6]) | PDI [2, 6] | Particle Size [2, 6] | Luminous Intensity 6 h (luciferase [1]; LNP with helper lipid DOPE) | Luminous Intensity 6 h (luciferase [1]; LNP with helper lipid DSPC) | Luminous Intensity 18 h (luciferase [3])
5 | CCCCCCCCC(CCCCCC)C(=O)OCCCCCCN(CCCCCCOC(=O)C(CCCCCC)CCCCCCCC)CCOC(=O)NCCN(CC)CC (stereo not shown) [Compound 1] | 95.42% | 93.01% | 0.082 | 99.86 nm | 0.135 | 111.7 nm |  |  |  | 1.6E+9 p/s/cm^2/sr | 3.4E+8 p/s/cm^2/sr | 
6 | CCCCCCCCC(CCCCCC)C(=O)OCCCCCCN(CCCCCCOC(=O)C(CCCCCC)CCCCCCCC)CCOC(=O)NCCN(C)CC (stereo not shown) [Compound 2] |  |  |  |  |  |  | 99.3% | 0.19 | 147.2 nm |  |  | 2E+8 p/s/cm^2/sr
7 | CCCCCCCCCOC(=O)CCCCCCCN(CCCCCCCC(=O)OC(CCCCCCCC)CCCCCCCC)CCOC(=O)NCCCN(C)C [Compound 17] |  |  |  |  |  |  | 99.4% | 0.36 | 90.31 nm |  |  | 3.4E+8 p/s/cm^2/sr
8 | CCCCCCCCCOC(=O)CCCCCCCN(CCCCCCCC(=O)OC(CCCCCCCC)CCCCCCCC)CCOC(=O)NCCN(CC)CC [Compound 18] |  |  |  |  |  |  | 96.0% | 0.14 | 121.7 nm |  |  | 1E+7 p/s/cm^2/sr
